According to patent US20240383915A1, “OXAZEPINE COMPOUNDS AND USES THEREOF IN THE TREATMENT OF CANCER” (Genentech, Inc., priority 2021, published 2024):

Assays:
[1] = biological target: KRas (Homo sapiens (Human), UniProt P01116); assay: KRas GDP HTRF (BODIPY-GDP exchange TR-FRET); format: biochemical
Procedure: KRAS Biochemical Assay—BODIPY-GDP Exchange TR-FRET. Biochemical compound potencies were assessed by evaluating inhibition of SOS1-mediated nucleotide exchange in KRAS G12D. The SOS1-promoted exchange of fluorescently-labeled GDP (BODIPY-GDP) was monitored by time-resolved fluorescence resonance energy transfer (TR-FRET). Compounds solubilized in DMSO were dispensed as concentration series into 384-well white assay plates. […] The reaction was initiated with the addition of 5 μL of 3 nM recombinant human SOS1 and 300 nM BODIPY-GDP in assay buffer. After a 60-minute incubation, the fluorescence was measured with excitation at 337 nm and emission at 490 and 520 nm. The TR-FRET ratio was determined as the fluorescence at 520 nm divided by the fluorescence at 490 nm multiplied by 10,000. […] The normalized TR-FRET results were plotted against compound concentration, and the data fit to a 4-parameter Hill equation to determine the IC50 values.

[2] = biological target: KRas(G12V) (Homo sapiens (Human), UniProt P01116, G12V); assay: KRas(G12V) GDP HTRF (BODIPY-GDP exchange TR-FRET); format: biochemical
KRas(G12V), sequence (P01116-2 other isoform, or with tags, fused parts or gaps G12V): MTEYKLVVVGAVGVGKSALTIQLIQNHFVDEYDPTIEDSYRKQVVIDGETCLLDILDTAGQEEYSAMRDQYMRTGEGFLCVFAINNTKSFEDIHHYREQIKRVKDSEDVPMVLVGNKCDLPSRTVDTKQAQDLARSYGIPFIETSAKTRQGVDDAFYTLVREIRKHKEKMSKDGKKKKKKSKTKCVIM

KRas, sequence (P01116-2 other isoform, or with tags, fused parts or gaps): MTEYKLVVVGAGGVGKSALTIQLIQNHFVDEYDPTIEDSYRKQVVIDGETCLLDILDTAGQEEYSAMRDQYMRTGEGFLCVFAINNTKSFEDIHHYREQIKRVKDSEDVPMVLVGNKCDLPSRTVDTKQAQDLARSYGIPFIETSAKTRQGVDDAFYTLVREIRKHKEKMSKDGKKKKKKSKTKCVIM

IC50 [1] [nM] | IC50 [2] [nM] | Structure (SMILES)
1.2 | 0.37 | Cc1cc(N)nc(-c2c(Cl)c3c4c(ncnc4c2F)N([C@H](C)c2cccnc2N)CCO3)c1C(F)(F)F (atropisomer, axis not shown) [Example 53a, 6-((R)-4-((R)-1-(2-aminopyridin-3-yl)ethyl)-8-chloro-10-fluoro-5,6-dihydro-4H-[1,4]oxazepino[5,6,7-de]quinazolin-9-yl)-4-methyl-5-(trifluoromethyl)pyridin-2-amine]
2900 | 600 | Cc1cc(N)nc(-c2c(Cl)c3c4c(ncnc4c2F)N([C@H](C)c2cccnc2N)CCO3)c1C(F)(F)F (atropisomer, axis not shown) [Example 53b, 6-((S)-4-((R)-1-(2-aminopyridin-3-yl)ethyl)-8-chloro-10-fluoro-5,6-dihydro-4H-[1,4]oxazepino[5,6,7-de]quinazolin-9-yl)-4-methyl-5-(trifluoromethyl)pyridin-2-amine]
143 | 12 | Cc1cc(N)nc(-c2c(Cl)c3c4c(nc(OC(C)(C)[C@@H]5CC(F)(F)CN5C)nc4c2F)N([C@H](C)c2cccnc2N)CCO3)c1C(F)(F)F (atropisomer, axis not shown) [Example 72, 6-((R)-4-((R)-1-(2-aminopyridin-3-yl)ethyl)-8-chloro-2-((2-((S)-4,4-difluoro-1-methylpyrrolidin-2-yl)propan-2-yl)oxy)-10-fluoro-5,6-dihydro-4H-[1,4]oxazepino[5,6,7-de]quinazolin-9-yl)-4-methyl-5-(trifluoromethyl)pyridin-2-amine]
0.165 | 0.09 | Cc1cc(N)nc(-c2c(Cl)c3c4c(nc(OC[C@@H]5CC(F)(F)CN5C)nc4c2F)N([C@H](C)c2ccnnc2N)CCO3)c1C(F)(F)F (atropisomer, axis not shown) [Example 85, 4-((R)-1-((R)-9-(6-amino-4-methyl-3-(trifluoromethyl)pyridin-2-yl)-8-chloro-2-(((S)-4,4-difluoro-1-methylpyrrolidin-2-yl)methoxy)-10-fluoro-5,6-dihydro-4H-[1,4]oxazepino[5,6,7-de]quinazolin-4-yl)ethyl)pyridazin-3-amine]
0.83 | 0.09 | Cc1cc(N)nc(-c2c(Cl)c3c4c(nc(OC[C@H](C)N5CCOCC5)nc4c2F)N([C@H](C)c2cccnc2N)CCO3)c1C(F)(F)F (atropisomer, axis not shown) [Example 95a, 6-((R)-4-((R)-1-(2-aminopyridin-3-yl)ethyl)-8-chloro-10-fluoro-2-((S)-2-morpholinopropoxy)-5,6-dihydro-4H-[1,4]oxazepino[5,6,7-de]quinazolin-9-yl)-4-methyl-5-(trifluoromethyl)pyridin-2-amine]
0.484 | 0.12 | Cc1cc(N)nc(-c2c(Cl)c3c4c(nc(OC[C@@H](C)N5CCOCC5)nc4c2F)N([C@H](C)c2cccnc2N)CCO3)c1C(F)(F)F (atropisomer, axis not shown) [Example 95b, 6-((R)-4-((R)-1-(2-aminopyridin-3-yl)ethyl)-8-chloro-10-fluoro-2-((R)-2-morpholinopropoxy)-5,6-dihydro-4H-[1,4]oxazepino[5,6,7-de]quinazolin-9-yl)-4-methyl-5-(trifluoromethyl)pyridin-2-amine]
0.299 | 0.08 | Cc1cc(N)nc(-c2c(Cl)c3c4c(nc(OC[C@@H]5COCCN5)nc4c2F)N([C@H](C)c2cccnc2N)CCO3)c1C(F)(F)F (atropisomer, axis not shown) [Example 96, 6-((R)-4-((R)-1-(2-aminopyridin-3-yl)ethyl)-8-chloro-10-fluoro-2-(((S)-morpholin-3-yl)methoxy)-5,6-dihydro-4H-[1,4]oxazepino[5,6,7-de]quinazolin-9-yl)-4-methyl-5-(trifluoromethyl)pyridin-2-amine]
0.359 | 0.08 | Cc1cc(N)nc(-c2c(Cl)c3c4c(nc(OC[C@H]5COCCN5)nc4c2F)N([C@H](C)c2cccnc2N)CCO3)c1C(F)(F)F (atropisomer, axis not shown) [Example 97, 6-((R)-4-((R)-1-(2-aminopyridin-3-yl)ethyl)-8-chloro-10-fluoro-2-(((R)-morpholin-3-yl)methoxy)-5,6-dihydro-4H-[1,4]oxazepino[5,6,7-de]quinazolin-9-yl)-4-methyl-5-(trifluoromethyl)pyridin-2-amine]
0.557 | 0.11 | Cc1cc(N)nc(-c2c(Cl)c3c4c(nc(OCC56C[C@@H](F)CN5C[C@H](F)C6)nc4c2F)N([C@H](C)c2cccnc2N)CCO3)c1C(F)(F)F (atropisomer, axis not shown) [Example 98a, 6-((R)-4-((R)-1-(2-aminopyridin-3-yl)ethyl)-8-chloro-2-(((2R,6R)-2,6-difluorotetrahydro-1H-pyrrolizin-7a(5H)-yl)methoxy)-10-fluoro-5,6-dihydro-4H-[1,4]oxazepino[5,6,7-de]quinazolin-9-yl)-4-methyl-5-(trifluoromethyl)pyridin-2-amine]
0.125 | 0.07 | Cc1cc(N)nc(-c2c(Cl)c3c4c(nc(OC[C@@H]5C[C@H]6COCCN65)nc4c2F)N([C@H](C)c2cccnc2N)CCO3)c1C(F)(F)F (atropisomer, axis not shown) [Example 99a, 6-((R)-2-(((6S,8S)-4-oxa-1-azabicyclo[4.2.0]octan-8-yl)methoxy)-4-((R)-1-(2-aminopyridin-3-yl)ethyl)-8-chloro-10-fluoro-5,6-dihydro-4H-[1,4]oxazepino[5,6,7-de]quinazolin-9-yl)-4-methyl-5-(trifluoromethyl)pyridin-2-amine]
0.0748 | 0.08 | Cc1cc(N)nc(-c2c(Cl)c3c4c(nc(OC[C@H]5C[C@@H]6COCCN65)nc4c2F)N([C@H](C)c2cccnc2N)CCO3)c1C(F)(F)F (atropisomer, axis not shown) [Example 99b, 6-((R)-2-(((6R,8R)-4-oxa-1-azabicyclo[4.2.0]octan-8-yl)methoxy)-4-((R)-1-(2-aminopyridin-3-yl)ethyl)-8-chloro-10-fluoro-5,6-dihydro-4H-[1,4]oxazepino[5,6,7-de]quinazolin-9-yl)-4-methyl-5-(trifluoromethyl)pyridin-2-amine]
1.13 |  | Cc1cc(N)nc(-c2c(Cl)c3c4c(nc(OC[C@@H]5CCCN5CC(F)F)nc4c2F)N([C@H](C)c2cncnc2N)CCO3)c1C(F)(F)F (atropisomer, axis not shown) [Example 103a, 5-((R)-1-((R)-9-(6-amino-4-methyl-3-(trifluoromethyl)pyridin-2-yl)-8-chloro-2-(((S)-1-(2,2-difluoroethyl)pyrrolidin-2-yl)methoxy)-10-fluoro-5,6-dihydro-4H-[1,4]oxazepino[5,6,7-de]quinazolin-4-yl)ethyl)pyrimidin-4-amine]
2.87 | 0.34 | COCCN1CCC(Oc2nc3c4c(c(Cl)c(-c5nc(N)cc(C)c5C(F)(F)F)c(F)c4n2)OCCN3[C@H](C)c2cccnc2N)CC1 (atropisomer, axis not shown) [Example 126, 6-((R)-4-((R)-1-(2-aminopyridin-3-yl)ethyl)-8-chloro-10-fluoro-2-((1-(2-methoxyethyl)piperidin-4-yl)oxy)-5,6-dihydro-4H-[1,4]oxazepino[5,6,7-de]quinazolin-9-yl)-4-methyl-5-(trifluoromethyl)pyridin-2-amine]
0.0894 | 0.07 | Cc1cc(N)nc(-c2c(Cl)c3c4c(nc(OC[C@@H]5CCCN5C)nc4c2F)N([C@H](C)c2cccnc2N)CCO3)c1C(F)(F)F (atropisomer, axis not shown) [Example 127, 6-((R)-4-((R)-1-(2-aminopyridin-3-yl)ethyl)-8-chloro-10-fluoro-2-(((S)-1-methylpyrrolidin-2-yl)methoxy)-5,6-dihydro-4H-[1,4]oxazepino[5,6,7-de]quinazolin-9-yl)-4-methyl-5-(trifluoromethyl)pyridin-2-amine]
0.149 | 0.09 | Cc1cc(N)nc(-c2c(Cl)c3c4c(nc(OC[C@]56CCCN5CCOC6)nc4c2F)N([C@H](C)c2cccnc2N)CCO3)c1C(F)(F)F (atropisomer, axis not shown) [Example 128a, 6-((R)-4-((R)-1-(2-aminopyridin-3-yl)ethyl)-8-chloro-10-fluoro-2-(((R)-tetrahydro-1H-pyrrolo[2,1-c][1,4]oxazin-8a(6H)-yl)methoxy)-5,6-dihydro-4H-[1,4]oxazepino[5,6,7-de]quinazolin-9-yl)-4-methyl-5-(trifluoromethyl)pyridin-2-amine]
0.469 | 0.19 | Cc1cc(N)nc(-c2c(Cl)c3c4c(nc(OC[C@@]56CCCN5CCOC6)nc4c2F)N([C@H](C)c2cccnc2N)CCO3)c1C(F)(F)F (atropisomer, axis not shown) [Example 128b, 6-((R)-4-((R)-1-(2-aminopyridin-3-yl)ethyl)-8-chloro-10-fluoro-2-(((S)-tetrahydro-1H-pyrrolo[2,1-c][1,4]oxazin-8a(6H)-yl)methoxy)-5,6-dihydro-4H-[1,4]oxazepino[5,6,7-de]quinazolin-9-yl)-4-methyl-5-(trifluoromethyl)pyridin-2-amine]
5.41 | 0.76 | Cc1cc(N)nc(-c2c(Cl)c3c4c(nc(OC[C@@H]5CCCN5CC(F)F)nc4c2F)N([C@H](C)c2nccnc2N)CCO3)c1C(F)(F)F (atropisomer, axis not shown) [Example 158a, 3-((R)-1-((R)-9-(6-amino-4-methyl-3-(trifluoromethyl)pyridin-2-yl)-8-chloro-2-(((S)-1-(2,2-difluoroethyl)pyrrolidin-2-yl)methoxy)-10-fluoro-5,6-dihydro-4H-[1,4]oxazepino[5,6,7-de]quinazolin-4-yl)ethyl)pyrazin-2-amine]
